{
  "source": "patent US20140328795A1",
  "about": "“VIRUCIDAL SMALL MOLECULE AND USES THEREOF” (The Texas A&M University System, priority 2012, published 2014)",
  "key": {"HIV-2": {"system": "HIV-2", "assay": "HIV-2 infectivity assay in TZM-bl cells (β-galactosidase)", "format": "cell-based", "details": "Human immunodeficiency virus 2, TZM-bl, PD in DMEM with 10% fetal bovine serum, IC90 per footnote, read-out: IC50 (the source's name)"}, "Lactobacillus crispatus": {"system": "Lactobacillus crispatus", "assay": "Lactobacillus toxicity testing (CFU)", "format": "cell-based", "details": "37° C.", "method": "(§1) Reference strains of L. crispatus and L. jensenii were obtained from the ATCC (Manassas, Va.) and cultured on Columbia blood agar plates at 35° C. in air enriched with 6% CO2. Bacterial suspensions were prepared in saline or ACES buffer to a density of 2 McFarland units (˜2×10^8 bacteria/mL), and exposed to PD (300 μM) or DMSO (10%) for 30 minutes at 37° C. After incubation, the cells were serially diluted in ACES buffer, pH 7.0 (Sigma-Aldrich, St. Louis, Mo.) and plated on blood agar plates to quantify colony forming unit per mL (CFU/mL)\n(§2) Different bacterial strains were incubated with 300 μM PD or solvent DMSO-containing control media at 37° C. for 30 min and plated on blood agar plates to estimate their corresponding colony forming units per ml (CFU/ml). Less than 1 log difference between control and test CFU is considered non-toxic17."}, "Lactobacillus jensenii": {"system": "Lactobacillus jensenii", "assay": "Lactobacillus toxicity testing (CFU)", "format": "cell-based", "details": "37° C.", "method": "as §1, §2"}, "HCVcc [1]": {"system": "HCVcc", "design": "species or system HCV"}, "HCVcc [2]": {"system": "HCVcc", "format": "cell-based, HCV"}, "HCVcc [3]": {"system": "HCVcc", "format": "cell-based, HCV", "remark": "listed apart in the source"}, "[4]": {"system": "HIV-1 (X4 NL4.3) particles", "details": "10 μM PD, 30 min, 37° C.; 20-70% sucrose gradient"}, "[5]": {"system": "HepG2, HCT-8, Huh-7, Huh-7.5, TZM, PC3 and 293T cells", "format": "cell-based, human"}, "HIV-1 (R5 JR-CSF)": {"system": "HIV-1 (R5 JR-CSF)", "assay": "Antiviral effect of PD before, during and after HIV-1 exposure (TZM-bl)", "format": "cell-based"}, "VSV-Gpp [6]": {"system": "VSV-Gpp", "format": "physicochemical"}, "VSV-Gpp [7]": {"system": "VSV-Gpp", "format": "physicochemical", "details": "pH 7"}, "HSV-1 virions": {"system": "HSV-1 virions", "details": "0.2 μM PD, 30 min, 37° C.; 20-70% sucrose gradient", "method": "FIGS. 16A-16B depict effectiveness of PD against HSV. PD blocks HSV infection. Vero cells were seeded in a 24-well plate and infected with HSV-1 (Syn 17) or HSV-2 (333) (FIG. 16A). PD (200 nM) or control DMSO (0.01%) was added immediately to the target cells after viral inoculation. Two days later, the cells were harvested, stained with antibody against HSV glycoprotein gD and analyzed by flow cytometry. Error bars represent standard deviation of triplicate samples. Results are representative of two independent experiments. PD Destabilizes HSV particles (FIG. 16B). […] The amount of HSV glycoprotein gpB in each fraction was analyzed by ELISA. The sucrose gradient density of each fraction was determined by measuring the refractive index. […]\nHSV was concentrated by loading 30 mL HSV-1-infected Vero cell supernatant on a 20% sucrose cushion and centrifuged in a SW28 rotor at 20,000 rpm for 1 h at 4° C. […] After ultracentrifugation at 30,000 rpm for 24 h in a SW-41 T rotor at 4° C., fractions of 1 mL were collected and analyzed for HSV gpB content by enzyme-linked immunosorbent assay (ELISA) using homemade rabbit polyclonal antibody. The density of each fraction from the sucrose gradient was determined by measuring the refractive index.\nApplicants also investigated whether PD can disrupt the structure of HSV virions. […] Each gradient fraction was analyzed for HSV glycoprotein gpB by ELISA. […]"}, "[8]": {"system": "freshly activated human PBMCs"}},
  "note": "Entries after “also recorded” stand apart in the source; their conditions may differ. Like-named read-outs stand apart in the source and are kept apart here.",
  "data": [
    {"smiles": "N=C1Sc2ccccc2C2=NCCCN12", "note": "[PD, PD 404,182]", "values": [
      {"measurement": "IC90", "setting": "HIV-2; HIV-2OD 0310342", "result": 4.7, "unit": "µM"},
      {"measurement": "IC90", "setting": "HIV-2; HIV-27312A", "result": 6.6, "unit": "µM"},
      {"measurement": "CFU of Lactobacillus treated with 300 μM PD", "setting": "Lactobacillus crispatus; Lactobacillus crispatus ATCC 33197, 30 min", "result": "7,260,000 CFU/ml"},
      {"measurement": "Log(Control)-Log(PD)", "setting": "Lactobacillus crispatus; Lactobacillus crispatus ATCC 33197, 300 μM PD, 30 min", "result": "−0.019"},
      {"measurement": "CFU of Lactobacillus treated with 300 μM PD", "setting": "Lactobacillus jensenii; Lactobacillus jensenii ATCC 25258, 30 min", "result": "7,533,333 CFU/ml"},
      {"measurement": "CFU of Lactobacillus treated with 300 μM PD", "setting": "Lactobacillus jensenii; Lactobacillus jensenii LBP 28Ab, 30 min", "result": "10,033,333 CFU/ml"},
      {"measurement": "Log(Control)-Log(PD)", "setting": "Lactobacillus jensenii; Lactobacillus jensenii LBP 28Ab, 300 μM PD, 30 min", "result": "−0.021"},
      {"measurement": "HCVcc virion lysis", "setting": "HCVcc [1]", "result": "Little to no virion lysis"},
      {"measurement": "inhibition of virus infectivity", "setting": "HCVcc [2]", "result": "> 10", "unit": "fold"},
      {"measurement": "attachment of PD-treated HCVcc to cells", "setting": "HCVcc [3]", "result": "binds to cells comparably to control DMSO-treated virus; also recorded: slight decrease in attachment"},
      {"measurement": "sedimentation of HIV-1 capsid and RT in sucrose gradient", "setting": "[4]", "result": "viral capsid and RT relocate to the top of the gradient"},
      {"measurement": "CC50", "setting": "[5]; cervical cancer cells", "result": "> 300", "unit": "µM"},
      {"measurement": "CC50", "setting": "[5]; seven different human cell lines, including TZM-bl (HeLa)", "result": "> 300", "unit": "µM"},
      {"measurement": "effect on HIV-1 infection", "setting": "HIV-1 (R5 JR-CSF); 10 μM PD added 1, 2, 4 and 8 h after virus inoculation", "result": "loses its antiviral effect"},
      {"measurement": "effect on HIV-1 infection", "setting": "HIV-1 (R5 JR-CSF); 10 μM PD added to cells before the virus", "result": "retains its full potency up to 8 h before the addition of the virus"},
      {"measurement": "effect on HIV-1 infection", "setting": "HIV-1 (R5 JR-CSF); 10 μM PD added together with the virus (time zero)", "result": "significantly inhibits HIV-1 infection"},
      {"measurement": "effect on HIV-1 infection", "setting": "HIV-1 (R5 JR-CSF); extended (>16 h) preincubation of PD with cells prior to virus inoculation", "result": "significantly reduces the compound's antiviral efficacy"},
      {"measurement": "antiviral activity lost", "setting": "VSV-Gpp [6]", "result": "no activity loss"},
      {"measurement": "stability", "setting": "VSV-Gpp [6]; pH 4", "result": "highly stable"},
      {"measurement": "long-term stability", "setting": "VSV-Gpp [7]", "result": "not stable"},
      {"measurement": "sedimentation of HSV gpB in sucrose gradient", "setting": "HSV-1 virions", "result": "all gpB distributed to the top of the gradient"},
      {"measurement": "reduction in cell viability", "setting": "[8]", "result": 48, "unit": "%"}
    ]}
  ]
}
